Measured values as given in the NIST ThermoML archive (doi:10.1016/j.fluid.2008.03.012).

Assay: excess molar enthalpy (molar enthalpy of mixing); xn = mol fraction of the nth substance listed
Conditions: Liquid, Flow calorimetry

CCOC(=O)CC(C)=O [ethyl 3-oxobutanoate] + CC(C)O
excess molar enthalpy [kJ/mol]
Conditions	298.15 K	313.15 K	328.15 K
100 kPa, x1 = 0.0997	0.988	1.11	1.18
100 kPa, x1 = 0.1998	1.54	1.76	1.9
100 kPa, x1 = 0.2999	1.87	2.17	2.33
100 kPa, x1 = 0.3499	1.97	2.29	2.45
100 kPa, x1 = 0.4003	2.04	2.36	2.53
100 kPa, x1 = 0.4496	2.08	2.4	2.56
100 kPa, x1 = 0.5003	2.08	2.4	2.55
100 kPa, x1 = 0.5494	2.05	2.35	2.5
100 kPa, x1 = 0.5995	1.99	2.27	2.4
100 kPa, x1 = 0.6505	1.89	2.15	2.25
100 kPa, x1 = 0.7008	1.76	1.98	2.06
100 kPa, x1 = 0.7999	1.37	1.5	1.56
100 kPa, x1 = 0.9006	0.774	0.83	0.85
10000 kPa, x1 = 0.0994	0.968	1.09	1.15
10000 kPa, x1 = 0.1993	1.5	1.71	1.87
10000 kPa, x1 = 0.2992	1.82	2.09	2.29
10000 kPa, x1 = 0.3491	1.92	2.21	2.42
10000 kPa, x1 = 0.3995	1.99	2.28	2.5
10000 kPa, x1 = 0.4488	2.03	2.31	2.53
10000 kPa, x1 = 0.4995	2.04	2.31	2.52
10000 kPa, x1 = 0.5486	2.02	2.26	2.47
10000 kPa, x1 = 0.5987	1.96	2.18	2.37
10000 kPa, x1 = 0.6497	1.87	2.06	2.23
10000 kPa, x1 = 0.7001	1.74	1.89	2.04
10000 kPa, x1 = 0.7994	1.36	1.43	1.54
10000 kPa, x1 = 0.9003	0.77	0.781	0.834

CCOC(=O)CC(C)=O [ethyl 3-oxobutanoate] + CCO
excess molar enthalpy [kJ/mol]
Conditions	298.15 K	313.15 K	328.15 K
100 kPa, x1 = 0.0999	0.744	0.847	0.907
100 kPa, x1 = 0.1997	1.2	1.36	1.5
100 kPa, x1 = 0.2994	1.49	1.68	1.86
100 kPa, x1 = 0.3495	1.59	1.8	1.98
100 kPa, x1 = 0.3999	1.66	1.88	2.06
100 kPa, x1 = 0.4501	1.7	1.91	2.1
100 kPa, x1 = 0.4995	1.71	1.92	2.1
100 kPa, x1 = 0.5492	1.69	1.9	2.07
100 kPa, x1 = 0.6008	1.65	1.84	1.99
100 kPa, x1 = 0.6501	1.58	1.75	1.88
100 kPa, x1 = 0.7008	1.48	1.62	1.74
100 kPa, x1 = 0.8006	1.15	1.24	1.31
100 kPa, x1 = 0.9002	0.657	0.703	0.712
10000 kPa, x1 = 0.0998	0.725	0.845	0.898
10000 kPa, x1 = 0.1995	1.17	1.36	1.47
10000 kPa, x1 = 0.2992	1.46	1.68	1.82
10000 kPa, x1 = 0.3493	1.55	1.8	1.94
10000 kPa, x1 = 0.3996	1.62	1.87	2.01
10000 kPa, x1 = 0.4498	1.66	1.9	2.05
10000 kPa, x1 = 0.4992	1.67	1.92	2.05
10000 kPa, x1 = 0.5489	1.66	1.89	2.01
10000 kPa, x1 = 0.6005	1.61	1.83	1.94
10000 kPa, x1 = 0.6499	1.54	1.75	1.83
10000 kPa, x1 = 0.7005	1.44	1.62	1.69
10000 kPa, x1 = 0.8004	1.12	1.24	1.26
10000 kPa, x1 = 0.9001	0.629	0.699	0.701
